Assays:
AMARE [1] = test: Post-emergence herbicidal action against AMARE; type: in vivo, Amaranthus retroflexus; details: 20 g/ha, visual assessment about 3 weeks after treatment, 100% = plants have died, 0% = like control plants
Summary of the method: (§1)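 Sandy loam, greenhouse; treatment 2–3 weeks after sowing, one-leaf stage. Aqueous suspension or emulsion from WP/EC sprayed on foliage (600–800 l/ha, 0.2% wetting agent). Readout: visual % action, ~3 weeks.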

VERPE [2] = test: Pre-emergence herbicidal action against VERPE; type: in vivo, Veronica persica; details: dosage 80 g/ha
Summary of the method: (§2)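 Seeds sown in sandy loam, soil-covered; compound sprayed on soil surface pre-emergence. Application: WP/EC, 600–800 l/ha, 0.2% wetting agent. Readout: visual % damage at 3 weeks.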

AVEFA = test: Pre-emergence herbicidal action against AVEFA; type: in vivo, Avena fatua
Summary of the method: as §2

ABUTH [3] = test: Pre-emergence herbicidal action against ABUTH; type: in vivo, Abutilon theophrasti
Summary of the method: as §2

SETVI [4] = test: Post-emergence herbicidal action against SETVI; type: in vivo, Setaria viridis
Summary of the method: as §1

PHBPU [5] = test: Pre-emergence herbicidal action against PHBPU; type: in vivo, Pharbitis purpurea
Summary of the method: as §2

AMARE [6] = test: Pre-emergence herbicidal action against AMARE; type: in vivo, Amaranthus retroflexus
Summary of the method: as §2

VIOTR [7] = test: Pre-emergence herbicidal action against VIOTR; type: in vivo, Viola tricolor
Summary of the method: as §2

VERPE [8] = test: Post-emergence herbicidal action against VERPE; type: in vivo, Veronica persica
Summary of the method: as §1

DIGSA [9] = test: Pre-emergence herbicidal action against DIGSA; type: in vivo, Digitaria sanguinalis
Summary of the method: as §2

DIGSA [10] = test: Post-emergence herbicidal action against DIGSA; type: in vivo, Digitaria sanguinalis
Summary of the method: as §1

ALOMY [11] = test: Post-emergence herbicidal action against ALOMY; type: in vivo, Alopecurus myosuroides; details: dosage 20 g/ha, visual assessment about 3 weeks after treatment vs untreated controls
Summary of the method: as §1

MATIN [12] = test: Post-emergence herbicidal action against MATIN; type: in vivo, Matricaria inodora
Summary of the method: as §1

ALOMY [13] = test: Pre-emergence herbicidal action against ALOMY; type: in vivo, Alopecurus myosuroides; details: 80 g/ha, pre-emergence, scored visually after 3 weeks vs untreated controls (100% = plants have died, 0% = like control plants)
Summary of the method: as §2

ECHCG [14] = test: Pre-emergence herbicidal action against ECHCG; type: in vivo, Echinochloa crus-galli
Summary of the method: as §2

ECHCG [15] = test: Post-emergence herbicidal action against ECHCG; type: in vivo, Echinochloa crus-galli
Summary of the method: as §1

PHBPU [16] = test: Post-emergence herbicidal action against PHBPU; type: in vivo, Pharbitis purpurea; details: dosage 20 g/ha
Summary of the method: as §1

VIOTR [17] = test: Post-emergence herbicidal action against VIOTR; type: in vivo, Viola tricolor
Summary of the method: as §1

ABUTH [18] = test: Post-emergence herbicidal action against ABUTH; type: in vivo, Abutilon theophrasti; details: visual assessment about 3 weeks after treatment vs untreated controls
Summary of the method: as §1

MATIN [19] = test: Pre-emergence herbicidal action against MATIN; type: in vivo, Matricaria inodora
Summary of the method: as §2

SETVI [20] = test: Pre-emergence herbicidal action against SETVI; type: in vivo, Setaria viridis
Summary of the method: as §2

[21] = Setaria viridis, 504 h, dosage 20 g/ha
[22] = Tripleurospermum inodorum, 504 h, dosage 20 g/ha
[23] = 80 g/ha, scored visually after 3 weeks vs untreated controls (100% = plants have died, 0% = like control plants)

CCNC(=O)c1c(C(F)(F)F)ccc(C(=O)Nc2nnnn2C)c1OC [Example 1-57]
pest or weed control at 20 g/ha (AMARE [1]; Amaranthus retroflexus, 504 h): 100% | pest or weed control at 80 g/ha (VERPE [2]; Veronica persica, 504 h): 80% | pest or weed control at 80 g/ha (AVEFA; Avena fatua, 504 h, 80 g/ha, pre-emergence): 90% | pest or weed control at 80 g/ha (ABUTH [3]; Abutilon theophrasti, 504 h, 80 g/ha, scored visually after 3 weeks vs untreated controls (100% = plants have died, 0% = like control plants)): 100% | pest or weed control at 20 g/ha (ABUTH [3]; Abutilon theophrasti, 504 h, dosage 20 g/ha, scored visually after 3 weeks vs untreated controls, 100% = plants have died, 0% = like control plants, read-out: Pre-emergence action against ABUTH (herbicidal activity in percent)): 100% | pest or weed control at 5 g/ha (SETVI [4]; Setaria viridis, 504 h, dosage 5 g/ha): 100% | pest or weed control at 20 g/ha (SETVI [4]; [21]): 100% | pest or weed control at 20 g/ha (PHBPU [5]; Ipomoea purpurea, 504 h, dosage 20 g/ha): 80% | pest or weed control at 80 g/ha (PHBPU [5]; Ipomoea purpurea, 504 h, dosage 80 g/ha): 80% | pest or weed control at 20 g/ha (AMARE [6]; Amaranthus retroflexus, 504 h, 20 g/ha, scored visually after 3 weeks vs untreated controls, 100% = plants have died, 0% = like control plants): 100% | pest or weed control at 80 g/ha (AMARE [6]; Amaranthus retroflexus, 504 h, 80 g/ha, scored visually after 3 weeks vs untreated controls, 100% = plants have died, 0% = like control plants): 100% | pest or weed control at 20 g/ha (VIOTR [7]; Viola tricolor, 504 h, dosage 20 g/ha): 100% | pest or weed control at 80 g/ha (VIOTR [7]; Viola tricolor, 504 h, dosage 80 g/ha): 100% | pest or weed control at 5 g/ha (VERPE [8]; Veronica persica, 504 h, 5 g/ha): 80% | pest or weed control at 20 g/ha (VERPE [8]; Veronica persica, 504 h, 20 g/ha): 90% | pest or weed control at 20 g/ha (DIGSA [9]; Digitaria sanguinalis, 504 h, dosage 20 g/ha): 100% | pest or weed control at 80 g/ha (DIGSA [9]; Digitaria sanguinalis, 504 h, dosage 80 g/ha): 100% | pest or weed control at 5 g/ha (DIGSA [10]; Digitaria sanguinalis, 504 h, 5 g/ha): 100% | pest or weed control at 20 g/ha (DIGSA [10]; Digitaria sanguinalis, 504 h, 20 g/ha): 100% | pest or weed control at 20 g/ha (ALOMY [11]; Alopecurus myosuroides, 504 h): 80% | pest or weed control at 5 g/ha (MATIN [12]; Tripleurospermum inodorum, 504 h, dosage 5 g/ha): 80% | pest or weed control at 20 g/ha (MATIN [12]; [22]): 90% | pest or weed control at 80 g/ha (ALOMY [13]; Alopecurus myosuroides, 504 h): 80% | pest or weed control at 20 g/ha (ECHCG [14]; Echinochloa crus-galli, 504 h, 20 g/ha): 90% | pest or weed control at 80 g/ha (ECHCG [14]; Echinochloa crus-galli, 504 h, 80 g/ha): 90% | pest or weed control at 5 g/ha (ECHCG [15]; Echinochloa crus-galli, 504 h, dosage 5 g/ha): 80% | pest or weed control at 20 g/ha (ECHCG [15]; Echinochloa crus-galli, 504 h, dosage 20 g/ha): 100% | pest or weed control at 20 g/ha (PHBPU [16]; Ipomoea purpurea, 504 h): 90% | pest or weed control at 5 g/ha (VIOTR [17]; Viola tricolor, 504 h, 5 g/ha): 100% | pest or weed control at 20 g/ha (VIOTR [17]; Viola tricolor, 504 h, 20 g/ha): 100% | pest or weed control at 5 g/ha (ABUTH [18]; Abutilon theophrasti, 504 h, dosage 5 g/ha): 90% | pest or weed control at 20 g/ha (ABUTH [18]; Abutilon theophrasti, 504 h, dosage 20 g/ha): 90% | pest or weed control at 20 g/ha (MATIN [19]; [22]): 90% | pest or weed control at 80 g/ha (MATIN [19]; Tripleurospermum inodorum, 504 h, dosage 80 g/ha): 100% | pest or weed control at 20 g/ha (SETVI [20]; [21]): 90% | pest or weed control at 80 g/ha (SETVI [20]; Setaria viridis, 504 h, dosage 80 g/ha): 100%

CC(NC(=O)c1c(C(F)(F)F)ccc(C(=O)Nc2nnnn2C)c1Cl)C1CC1 (stereo not shown) [Example 1-135]
Post-emergence action at 20 g/ha against AMARE in % (AMARE [1]): 90% | Pre-emergence action against VERPE in % (VERPE [2]): 90% | Pre-emergence action against AVEFA (AVEFA; 20 g/ha, scored visually after 3 weeks, 100% = plants have died, 0% = like control plants): 80% | Pre-emergence action against AVEFA in % (AVEFA; 80 g/ha, pre-emergence): 100% | Pre-emergence action against ABUTH (herbicidal activity) (ABUTH [3]; [23]): 100% | Pre-emergence action against ABUTH (herbicidal activity in percent) (ABUTH [3]; dosage 20 g/ha, scored visually after 3 weeks vs untreated controls, 100% = plants have died, 0% = like control plants): 100% | Post-emergence action against SETVI in % (SETVI [4]; dosage 20 g/ha): 80% | Pre-emergence action against PHBPU in % (PHBPU [5]; dosage 80 g/ha): 80% | Pre-emergence action against AMARE in % (AMARE [6]; 20 g/ha, scored visually after 3 weeks vs untreated controls, 100% = plants have died, 0% = like control plants): 100% | Pre-emergence action against AMARE in % (AMARE [6]; [23]): 100% | Pre-emergence action against VIOTR in % (VIOTR [7]; dosage 80 g/ha): 100% | Post-emergence action against VERPE in % (VERPE [8]; 5 g/ha): 80% | Post-emergence action against VERPE in % (VERPE [8]; 20 g/ha): 90% | Pre-emergence action against DIGSA in % (DIGSA [9]; dosage 20 g/ha): 90% | Pre-emergence action against DIGSA in % (DIGSA [9]; dosage 80 g/ha): 100% | Post-emergence action against DIGSA (DIGSA [10]; 20 g/ha): 90% | Post-emergence action against ALOMY in % (ALOMY [11]): 90% | Post-emergence action against MATIN in % (MATIN [12]; dosage 5 g/ha): 80% | Post-emergence action against MATIN in % (MATIN [12]; dosage 20 g/ha): 90% | Pre-emergence action against ALOMY (herbicidal activity) (ALOMY [13]): 90% | Pre-emergence action against ECHCG in % (ECHCG [14]; 20 g/ha): 80% | Pre-emergence action against ECHCG in % (ECHCG [14]; 80 g/ha): 100% | Post-emergence action against ECHCG in % (ECHCG [15]; dosage 5 g/ha): 80% | Post-emergence action against ECHCG in % (ECHCG [15]; dosage 20 g/ha): 100% | Post-emergence action against PHBPU in % (PHBPU [16]): 90% | Post-emergence action against VIOTR in % (VIOTR [17]; 5 g/ha): 80% | Post-emergence action against VIOTR in % (VIOTR [17]; 20 g/ha): 90% | Post-emergence action against ABUTH in % (ABUTH [18]; dosage 20 g/ha): 80% | Pre-emergence action against MATIN in % (MATIN [19]; dosage 20 g/ha): 90% | Pre-emergence action against MATIN in % (MATIN [19]; dosage 80 g/ha): 100% | Pre-emergence action against SETVI in % (SETVI [20]; dosage 80 g/ha): 100%

Reference: patent publication US12655116B2, “Substituted isophthalic acid diamides” (Bayer Aktiengesellschaft, priority 2020, dated 2026)
